Experimental data from patent US12492232B2, “Methods for producing proteins” (South Australian Health and Medical Research Institute …, priority 2018, dated 2025).
“Also recorded” adds a separate entry of the source.

Tests used:
Type in all cases: cell-based
[1] = system: mTORC1 localisation at the lysosome; test: Immunofluorescence of mTOR and LAMP1 colocalisation in serum-starved transfected CHO cells; details: medium lacking FBS for 16 h
Description: 24 h after transfection cells were transferred to medium lacking FBS for 16 hours. Cells were fixed with 4% paraformaldehyde, permeabilized with 0.05% Triton X-100, blocked with 10% normal donkey serum before LAMP1 and then anti-mTOR antibodies were applied overnight. Alexa Fluor™ 488 and 594-labelled secondary antibodies were applied before cells were mounted and stained with DAPI.
24 h after transfection cells were transferred to medium lacking FBS for 16 h. Cells were fixed with 4% paraformaldehyde, permeabilized with 0.05% Triton X-100, blocked with 10% normal donkey serum before LAMP1 and mTOR antibodies were applied overnight. Alexa Fluor™ 488 and 594 secondary antibodies were applied before cells were mounted and stained with DAPI.

[2] = system: CHO cells stably expressing Gaussia luciferase (GLuc); test: Secreted Gaussia luciferase assay in CHO cells stably expressing GLuc transfected with Rheb vectors
Description: CHO cells stably expressing Firefly luciferase (FLuc) or Gaussia luciferase (GLuc) as indicated were transfected using Lipofectamine3000 with an empty vector (EV) or vectors for Rheb WT, S21L, T23M, G29S, Y35N or E40K and also treated with the mTOR inhibitor AZD8055 at 100 nM for the total duration where indicated. Fluc and GLuc assays were performed 24 h after transfection and then every 48 h for 7 days. Assay results are normalised to cell number. GLuc-CHO cells were harvested for SDS-PAGE and Western Blot analysis at the 168 h (7-day) time-point to probe for intracellular GLuc, FLAG (Rheb) and actin, as ‘loading control’. […] However, Rheb-T23M and —Y35N caused a significant 3-fold increase in secreted Gaussia luciferase that was also seen with E40K and was prevented by treatment with AZD8055 (C/D [histogram of day 7]). In (E), secreted GLuc was monitored every 4 h from 24 h to 60 h showing the rate of secretion of GLuc was higher when Rheb-T23M is expressed as compared to Rheb-Y35N. The pattern for intracellular levels of Gaussia luciferase (assessed by immunoblot of cell lysates harvested at 7 days post transfection) more closely resemble those intracellular firefly luciferase (F) with little change compared to either the empty vector or WT while still retaining heightened mTORC1 signalling as indicated by the elevated levels of P-S6K1 Thr389 compared to cells transfected with the empty vector. CHO cells expressing Rheb-T23M, Y35N and E40K show a small increases in general protein synthesis but a marked increase in secreted Gaussia protein that is blocked by mTOR inhibition. Thus, Rheb[T23M] selectively promotes production of the secreted protein GLuc in a process that requires mTOR signalling.
Constructs were introduced into CHO cells using Lipofectamine3000 (Life Technologies) according to the manufacturer's protocol. Cell lines stably expressing secreted luciferase were generated by cloning the GLuc gene with a signal sequence from Nanolight Technology (see paper sent with this version) and cloning this into the pcDNA4 commercially available vector where gene expression was driven by a CMV promoter. The subsequent vectors were transfected, using lipofectamine, into CHO-S freestyle suspension cells and grown in CD-CHO media and then stable transfectant pools selected by addition of zeocin antibiotic. Once stable pools had emerged these were subjected to limited dilution cloning to obtain a range of pools with different secreted GLuc expression levels. Methods as are described, for example, in Josse et al. (2009) Biotechnology and Bioengineering 105: 556-566.
For Gaussia luciferase, we employed the BioLux® Gaussia Luciferase Assay Kit (New England Biolabs (NEB), Cat. No. E3300S) and for firefly luciferase the Luciferase Assay System from Promega (Cat. No. E1500). Cells were grown in Ham's F12 medium F12 nutrient mix, Ham's (Life Technologies, Cat. No. 11765054).
CHO cells stably expressing Firefly luciferase (FLuc; which is cytoplasmic) or Gaussia luciferase (GLuc; which is secreted) as indicated were transfected using Lipofectamine3000 with an empty vector (EV) or vectors for Rheb WT, S21L, T23M, G29S, Y35N or E40K and treated with the mTOR inhibitor AZD8055 at 100 nM for the total duration where appropriate. Fluc and GLuc assays were performed at 24 h after transfection and then every 48 h for 7 days. Assay results were normalised to cell number. […]

mTORC1 signalling = mTORC1 signalling (Western blot, S6K1 and rpS6) in transfected CHO cells starved of serum and amino acids, with or without TSC1/2 co-transfection
Description: GTP. GST-Rheb bound to GDP or GTP was pulled down using glutathione beads and the nucleotides were then separated by thin-layer chromatography and visualized by phosphorimager. The positions of GDP and GTP are shown (FIG. 1A). […] FIGS. 1C-1D: CHO cells were co-transfected using Lipofectamine 3000 with vectors encoding wildtype (WT) Rheb or the indicated mutants and TSC1/2 as indicated. 36 h after transfection, cells were transferred to Ham's F12 media lacking FBS for 16 h. Cells were the transferred to Dulbecco's phosphate-buffered saline (D-PBS, which lacks amino acids) for 1 h before cell lysates were harvested for SDS-PAGE and Western Blotting analysis using the indicated antibodies.

ExpiCHO-S™ cells = test: Rabbit IgG secretion by ExpiCHO-S cells stably expressing Rheb variants (Easy-Titer Rabbit IgG Assay); details: single replicate; compared to Rheb-WT or Rheb-Y35N
Description: Materials and Methods: ExpiCHO-S™ cells were purchased from ThermoFischer Scientific and cultured in ExpiCHO™ Expression Medium at 37° C. at 8% CO2. […] Transfected cells were grown in 600 μg/mL […] for 6 weeks. Surviving cells were plated as single cells in a 96-well plate and monoclonal colonies selected for FLAG-Rheb expression.
Rabbit IgG secretion was determined using the ExpiCHO™ Expression system according to the manufacturer's instructions. Briefly, ExpiCHO™ cells expressing either endogenous Rheb or stably expressing exogenous Rheb were seeded at 6×10^6 cells/mL in 25 mL of ExpiCHO™ Expression Medium and transfected with 20 μg of a pcDNA3.1 vector encoding heavy and light chains of Rabbit IgG at a 1:2 ratio of heavy chain:light chain using ExpiFectamine™ CHO Reagent. 24 hours after transfection, cells were feed with ExpiCHO™ Feed and ExpiFectamine™ CHO Enhancer and transferred to 32° C., 5% CO2. Cells were allowed to grow for 10 days with 100 μL samples taken every day. After 10 days, Cells were pelleted by centrifugation at 4000×g for 30 minutes at 4° C. and the supernatant filtered through a […] PVFD filter and collected. IgG yield was determined using Easy-Titer™ Rabbit IgG Assay kit and calculated from a standard curve.

[3] = system: mTORC1 and ER Stress activation markers; test: Western blot for mTORC1 and ER stress activation markers in ExpiCHO cells stably expressing Rheb variants
[4] = system: CHO cells stably expressing Firefly luciferase (FLuc); test: Firefly luciferase assay in CHO cells stably expressing FLuc transfected with Rheb vectors; details: day 7, normalised to cell number
Description: CHO cells stably expressing Firefly luciferase (FLuc) or Gaussia luciferase (GLuc) as indicated were transfected using Lipofectamine3000 with an empty vector (EV) or vectors for Rheb WT, S21L, T23M, G29S, Y35N or E40K and also treated with the mTOR inhibitor AZD8055 at 100 nM for the total duration where indicated. Fluc and GLuc assays were performed 24 h after transfection and then every 48 h for 7 days. Assay results are normalised to cell number. GLuc-CHO cells were harvested for SDS-PAGE and Western Blot analysis at the 168 h (7-day) time-point to probe for intracellular GLuc, FLAG (Rheb) and actin, as ‘loading control’. […] In (E), secreted GLuc was monitored every 4 h from 24 h to 60 h showing the rate of secretion of GLuc was higher when Rheb-T23M is expressed as compared to Rheb-Y35N. The pattern for intracellular levels of Gaussia luciferase (assessed by immunoblot of cell lysates harvested at 7 days post transfection) more closely resemble those intracellular firefly luciferase (F) with little change compared to either the empty vector or WT while still retaining heightened mTORC1 signalling as indicated by the elevated levels of P-S6K1 Thr389 compared to cells transfected with the empty vector. […]

Substance: Rheb-T23M: human Rheb protein with a methionine variant at residue 23 (T23M), SEQ ID NO. 3
- mTOR localisation to the lysosome (overlap with LAMP1) [1]: promote localisation; also recorded: strong mTOR localisation on lysosomes
- increase in secreted Gaussia luciferase ([2]; day 7, normalised to cell number): 3 fold
- rate of secretion of GLuc ([2]; monitored every 4 h from 24 h to 60 h, compared to Rheb-Y35N): higher
- mTORC1 signalling in the absence of upstream activation (mTORC1 signalling; no serum 16 h, D-PBS 1 h, compared to empty vector and Rheb-WT): increased mTORC1 signalling over both the empty vector and Rheb-WT
- mTORC1 signalling when co-transfected with TSC1/TSC2 (mTORC1 signalling; no serum and amino acids, co-transfected with TSC1/TSC2): no reduction
- rate of IgG secretion determined daily over 10 days (ExpiCHO-S™ cells): maintain a constant rate of IgG secretion over a longer period
- ER stress response (Western blot markers) [3]: mild ER stress response
- mTORC1 signalling (Western blot markers) [3]: increased mTORC1 signalling
- increase in synthesis of intracellular Firefly luciferase compared to the empty vector [4]: ca. 1.2 fold
